Laboratory results taken from ChEMBL document CHEMBL3880381, “Selective inhibitors of aggrecanase in osteoarthritis treatment” (2001).

Experiments:
[1] = target: T1, Interstitial collagenase (Homo sapiens, UniProt P03956); experiment: Inhibition of trypsin-activated recombinant human collagenase 1 preincubated with protein followed by addition of DNP-Pro-Cha-Gly-Cys(Me)-His-Ala-Lys(NMA)-NH2 as substrate measured after 20 mins by fluorescence analysis
T1 sequence (P03956 whole entry): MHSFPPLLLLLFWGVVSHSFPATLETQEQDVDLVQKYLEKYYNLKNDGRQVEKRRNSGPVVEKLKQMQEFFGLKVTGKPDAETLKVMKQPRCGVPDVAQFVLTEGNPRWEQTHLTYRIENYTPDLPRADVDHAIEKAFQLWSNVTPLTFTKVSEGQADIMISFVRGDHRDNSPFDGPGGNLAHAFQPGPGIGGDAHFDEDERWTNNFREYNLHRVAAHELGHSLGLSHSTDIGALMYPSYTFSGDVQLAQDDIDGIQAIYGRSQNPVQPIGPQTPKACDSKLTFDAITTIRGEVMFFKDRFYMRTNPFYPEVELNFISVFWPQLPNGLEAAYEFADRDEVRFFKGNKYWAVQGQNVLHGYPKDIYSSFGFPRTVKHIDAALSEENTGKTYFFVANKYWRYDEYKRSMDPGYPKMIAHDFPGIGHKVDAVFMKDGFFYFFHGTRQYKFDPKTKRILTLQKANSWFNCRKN

[2] = target: Disintegrin and metalloproteinase domain-containing protein 17 (Homo sapiens, UniProt P78536); experiment: Inhibition of TACE in human mononuclear cells assessed as inhibition of LPS-induced TNF-alpha production measured after 4 hrs in presence of LPS by ELISA; format: cell-based
Chain of Disintegrin and metalloproteinase domain-containing protein 17 (P78536 whole entry, the tested form may be a part): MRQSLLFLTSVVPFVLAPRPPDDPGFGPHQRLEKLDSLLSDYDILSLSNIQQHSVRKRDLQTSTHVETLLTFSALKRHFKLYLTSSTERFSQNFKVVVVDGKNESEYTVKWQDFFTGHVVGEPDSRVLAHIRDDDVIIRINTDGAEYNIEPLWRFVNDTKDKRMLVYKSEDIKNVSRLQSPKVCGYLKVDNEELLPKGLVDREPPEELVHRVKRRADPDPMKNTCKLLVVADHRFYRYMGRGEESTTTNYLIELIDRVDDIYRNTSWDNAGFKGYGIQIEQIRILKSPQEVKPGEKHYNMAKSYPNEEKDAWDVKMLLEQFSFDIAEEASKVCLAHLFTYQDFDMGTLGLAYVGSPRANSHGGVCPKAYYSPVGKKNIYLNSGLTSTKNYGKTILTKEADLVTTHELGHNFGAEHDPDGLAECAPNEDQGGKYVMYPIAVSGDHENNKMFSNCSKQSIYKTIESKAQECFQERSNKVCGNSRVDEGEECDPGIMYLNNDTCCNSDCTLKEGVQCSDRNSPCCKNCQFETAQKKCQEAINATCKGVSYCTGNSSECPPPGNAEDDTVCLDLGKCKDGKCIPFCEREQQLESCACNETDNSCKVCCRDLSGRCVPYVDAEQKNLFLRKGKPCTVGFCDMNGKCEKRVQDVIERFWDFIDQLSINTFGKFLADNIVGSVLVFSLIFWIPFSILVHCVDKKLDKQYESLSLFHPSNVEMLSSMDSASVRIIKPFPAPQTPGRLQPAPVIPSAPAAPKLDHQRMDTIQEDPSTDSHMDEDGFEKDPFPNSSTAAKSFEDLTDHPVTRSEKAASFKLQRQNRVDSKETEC

[3] = target: T2, Aggrecanase (Sus scrofa, UniProt F1S1A7+F1SHP0); experiment: Inhibition of aggrecanase in primary porcine chondrocytes assessed as inhibition of 35S-proteoglycan release measured after 9 to 12 hrs by liquid scintillation counting method; format: cell-based
T2 sequence (F1S1A7 whole entry): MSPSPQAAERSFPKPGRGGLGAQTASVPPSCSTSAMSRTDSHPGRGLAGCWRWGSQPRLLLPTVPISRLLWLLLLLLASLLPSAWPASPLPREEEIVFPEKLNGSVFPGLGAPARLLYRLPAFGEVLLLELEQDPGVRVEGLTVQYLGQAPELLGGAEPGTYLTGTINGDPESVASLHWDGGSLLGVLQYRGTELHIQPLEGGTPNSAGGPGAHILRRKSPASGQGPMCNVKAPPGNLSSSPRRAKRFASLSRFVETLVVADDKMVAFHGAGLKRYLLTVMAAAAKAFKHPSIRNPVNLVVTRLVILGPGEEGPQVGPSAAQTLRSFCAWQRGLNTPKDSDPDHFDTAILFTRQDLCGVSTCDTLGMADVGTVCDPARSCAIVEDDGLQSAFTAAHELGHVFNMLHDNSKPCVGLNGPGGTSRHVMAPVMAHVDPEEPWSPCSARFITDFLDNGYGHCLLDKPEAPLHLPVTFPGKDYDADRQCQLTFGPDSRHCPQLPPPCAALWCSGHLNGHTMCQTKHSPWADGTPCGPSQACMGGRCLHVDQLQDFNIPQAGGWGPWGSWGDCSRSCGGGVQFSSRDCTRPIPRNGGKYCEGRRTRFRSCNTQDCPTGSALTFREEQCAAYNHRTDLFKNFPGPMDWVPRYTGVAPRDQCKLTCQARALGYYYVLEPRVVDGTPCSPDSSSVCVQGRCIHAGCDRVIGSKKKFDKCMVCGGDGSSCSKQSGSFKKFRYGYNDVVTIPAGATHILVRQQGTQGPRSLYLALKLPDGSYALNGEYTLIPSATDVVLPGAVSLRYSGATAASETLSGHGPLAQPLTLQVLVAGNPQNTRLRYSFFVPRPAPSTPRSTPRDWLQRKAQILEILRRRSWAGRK
T2 sequence (F1SHP0 whole entry): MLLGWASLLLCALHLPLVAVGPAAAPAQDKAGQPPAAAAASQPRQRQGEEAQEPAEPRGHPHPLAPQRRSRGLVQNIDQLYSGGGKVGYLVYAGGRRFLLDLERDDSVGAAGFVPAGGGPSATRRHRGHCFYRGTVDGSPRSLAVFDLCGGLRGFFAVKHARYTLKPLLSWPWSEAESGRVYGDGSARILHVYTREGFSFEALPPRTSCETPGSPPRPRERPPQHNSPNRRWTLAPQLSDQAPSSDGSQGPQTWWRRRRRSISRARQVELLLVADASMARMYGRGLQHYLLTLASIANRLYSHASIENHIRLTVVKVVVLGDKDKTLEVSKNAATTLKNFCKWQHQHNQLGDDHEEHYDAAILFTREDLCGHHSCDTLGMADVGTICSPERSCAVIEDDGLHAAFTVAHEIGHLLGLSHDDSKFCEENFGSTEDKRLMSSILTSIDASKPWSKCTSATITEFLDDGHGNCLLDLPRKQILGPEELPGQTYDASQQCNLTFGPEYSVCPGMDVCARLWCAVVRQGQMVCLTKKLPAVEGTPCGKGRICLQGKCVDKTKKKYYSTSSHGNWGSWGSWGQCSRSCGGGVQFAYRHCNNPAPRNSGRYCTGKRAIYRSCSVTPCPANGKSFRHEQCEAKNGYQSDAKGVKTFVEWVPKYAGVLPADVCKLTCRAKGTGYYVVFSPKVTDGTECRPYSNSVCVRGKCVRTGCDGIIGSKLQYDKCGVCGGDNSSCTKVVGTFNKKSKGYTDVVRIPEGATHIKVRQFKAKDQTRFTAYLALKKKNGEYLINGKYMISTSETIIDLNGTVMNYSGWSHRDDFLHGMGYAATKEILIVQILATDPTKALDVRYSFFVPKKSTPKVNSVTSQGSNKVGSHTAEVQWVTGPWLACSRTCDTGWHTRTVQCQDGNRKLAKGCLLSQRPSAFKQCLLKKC

[4] = target: Collagenase 3 (Homo sapiens, UniProt P45452); experiment: Inhibition of APMA-activated recombinant human collagenase 3 preincubated with protein followed by addition of DNP-Pro-Cha-Gly-Cys(Me)-His-Ala-Lys(NMA)-NH2 as substrate measured every 5 mins for 1 hr by fluorescence analysis

SMILES: CC1(C)C[C@@H](O)CN(S(=O)(=O)c2ccc(OCc3ccc(Cl)cc3Cl)cc2)[C@H]1C(=O)NO
- IC50 [1]: 0.2 to 1 µM
- IC50 [2]: 20 to 40 µM
- IC50 [3]: < 0.01 µM
- IC50 [4]: < 0.01 µM

SMILES: C[C@@]1(O)CCCN(S(=O)(=O)c2ccc(OCc3ccccc3F)cc2)[C@H]1C(=O)NO
- IC50 [1]: 0.02 to 0.2 µM
- IC50 [2]: 20 to 40 µM
- IC50 [3]: 0.01 to 0.02 µM

SMILES: C[C@@]1(O)CCCN(S(=O)(=O)c2ccc(OCc3ccccc3Cl)cc2)[C@H]1C(=O)NO
- IC50 [2]: < 10 µM
- IC50 [3]: < 0.01 µM
- IC50 [4]: < 0.01 µM

SMILES: Cc1ccc(F)cc1COc1ccc(S(=O)(=O)N2CCC[C@@](C)(O)[C@@H]2C(=O)NO)cc1
- IC50 [2]: < 10 µM
- IC50 [3]: 0.01 to 0.02 µM
- IC50 [4]: < 0.01 µM

SMILES: Cc1ccccc1COc1ccc(S(=O)(=O)N2CCC[C@@](C)(O)[C@@H]2C(=O)NO)cc1
- IC50 [1]: 0.2 to 1 µM
- IC50 [2]: < 10 µM
- IC50 [3]: < 0.01 µM
- IC50 [4]: < 0.01 µM

SMILES: C[C@@]1(O)CCCN(S(=O)(=O)c2ccc(OCc3ccc(F)cc3Cl)cc2)[C@H]1C(=O)NO
- IC50 [1]: 0.2 to 1 µM
- IC50 [2]: 10 to 20 µM
- IC50 [3]: < 0.01 µM
- IC50 [4]: < 0.01 µM

SMILES: Cc1c(F)cccc1COc1ccc(S(=O)(=O)N2C[C@H](O)CC(C)(C)[C@@H]2C(=O)NO)cc1
- IC50 [1]: 0.2 to 1 µM
- IC50 [2]: < 10 µM
- IC50 [3]: < 0.01 µM
- IC50 [4]: < 0.01 µM

SMILES: Cc1cc(F)ccc1COc1ccc(S(=O)(=O)N2C[C@H](O)CC(C)(C)[C@@H]2C(=O)NO)cc1
- IC50 [1]: 0.2 to 1 µM
- IC50 [2]: < 10 µM
- IC50 [3]: < 0.01 µM
- IC50 [4]: < 0.01 µM

SMILES: Cc1c(F)cccc1COc1ccc(S(=O)(=O)N2CCC[C@@](C)(O)[C@@H]2C(=O)NO)cc1
- IC50 [1]: > 1 µM
- IC50 [2]: < 10 µM
- IC50 [3]: 0.01 to 0.02 µM
- IC50 [4]: < 0.01 µM

SMILES: Cc1cc(F)ccc1COc1ccc(S(=O)(=O)N2CCC[C@@](C)(O)[C@@H]2C(=O)NO)cc1
- IC50 [2]: < 10 µM
- IC50 [3]: < 0.01 µM
- IC50 [4]: < 0.01 µM

SMILES: CC1(C)C[C@@H](O)CN(S(=O)(=O)c2ccc(OCc3ccccc3Br)cc2)[C@H]1C(=O)NO
- IC50 [1]: 0.2 to 1 µM
- IC50 [2]: < 10 µM
- IC50 [3]: 0.01 to 0.02 µM
- IC50 [4]: < 0.01 µM

SMILES: CC1(C)C[C@@H](O)CN(S(=O)(=O)c2ccc(OCc3ccc(F)cc3Cl)cc2)[C@H]1C(=O)NO
- IC50 [1]: 0.2 to 1 µM
- IC50 [2]: 10 to 20 µM
- IC50 [3]: < 0.01 µM
- IC50 [4]: < 0.01 µM

SMILES: NS(=O)(=O)c1ccc(CCNC(=O)[C@H](CC2CCCCC2)NC(=O)[C@H](CCCc2ccccc2)CC(=O)NO)cc1
- IC50 [2]: 3 µM

SMILES: CCc1ccccc1COc1ccc(S(=O)(=O)N2CCN(C(=O)NC)[C@@H](C)[C@@H]2C(=O)NO)cc1
- IC50 [1]: > 1 µM
- IC50 [2]: < 10 µM
- IC50 [3]: < 0.01 µM
- IC50 [4]: 0.02 to 0.2 µM

SMILES: Cc1cc(F)ccc1COc1ccc(S(=O)(=O)N2CC(=O)N[C@@H](C)[C@@H]2C(=O)NO)cc1
- IC50 [1]: > 1 µM
- IC50 [2]: < 10 µM
- IC50 [3]: < 0.01 µM
- IC50 [4]: 0.01 to 0.02 µM

SMILES: Cc1ccccc1COc1ccc(S(=O)(=O)N2CCC[C@](C)(O)[C@@H]2C(=O)NO)cc1
- IC50 [1]: 0.2 to 1 µM
- IC50 [2]: < 10 µM
- IC50 [3]: 0.01 to 0.02 µM
- IC50 [4]: < 0.01 µM

SMILES: C[C@@]1(O)CCCN(S(=O)(=O)c2ccc(OCc3ccc(Cl)cc3Cl)cc2)[C@H]1C(=O)NO
- IC50 [1]: 0.2 to 1 µM
- IC50 [2]: 10 to 20 µM
- IC50 [3]: < 0.01 µM
- IC50 [4]: < 0.01 µM

SMILES: CNC(=O)N1CCN(S(=O)(=O)c2ccc(OCc3ccc(F)cc3F)cc2)[C@@H](C(=O)NO)[C@@H]1C
- IC50 [1]: 0.2 to 1 µM
- IC50 [2]: 10 to 20 µM
- IC50 [3]: 0.01 to 0.02 µM
- IC50 [4]: < 0.01 µM

SMILES: CC1(C)C[C@@H](O)CN(S(=O)(=O)c2ccc(OCc3cc(Cl)ccc3F)cc2)[C@H]1C(=O)NO
- IC50 [1]: 0.2 to 1 µM
- IC50 [2]: 10 to 20 µM
- IC50 [3]: 0.01 to 0.02 µM
- IC50 [4]: < 0.01 µM

SMILES: C[C@@]1(O)CCCN(S(=O)(=O)c2ccc(OCc3ccc(F)cc3F)cc2)[C@H]1C(=O)NO
- IC50 [1]: 0.2 to 1 µM
- IC50 [2]: 10 to 20 µM
- IC50 [3]: 0.01 to 0.02 µM
- IC50 [4]: < 0.01 µM

SMILES: CC1(C)C[C@@H](O)CN(S(=O)(=O)c2ccc(OCc3ccc(F)cc3)cc2)[C@H]1C(=O)NO
- IC50 [1]: 0.02 to 0.2 µM
- IC50 [2]: 10 to 20 µM
- IC50 [3]: < 0.01 µM
- IC50 [4]: < 0.01 µM

SMILES: Cc1ccccc1COc1ccc(S(=O)(=O)N2CCN(C(=O)CN)[C@@H](C)[C@@H]2C(=O)NO)cc1
- IC50 [1]: > 1 µM
- IC50 [2]: < 10 µM
- IC50 [3]: < 0.01 µM
- IC50 [4]: 0.02 to 0.2 µM

SMILES: Cc1ccc(F)cc1COc1ccc(S(=O)(=O)N2CC(=O)N[C@@H](C)[C@@H]2C(=O)NO)cc1
- IC50 [1]: > 1 µM
- IC50 [2]: < 10 µM
- IC50 [3]: < 0.01 µM
- IC50 [4]: 0.01 to 0.02 µM

SMILES: Cc1ccc(Cl)cc1COc1ccc(S(=O)(=O)N2C[C@H](O)CC(C)(C)[C@@H]2C(=O)NO)cc1
- IC50 [1]: > 1 µM
- IC50 [2]: 10 to 20 µM
- IC50 [3]: 0.01 to 0.02 µM
- IC50 [4]: 0.02 to 0.2 µM

SMILES: CNC(=O)N1CCN(S(=O)(=O)c2ccc(OCc3cc(F)ccc3C)cc2)[C@@H](C(=O)NO)[C@@H]1C
- IC50 [1]: > 1 µM
- IC50 [2]: < 10 µM
- IC50 [3]: < 0.01 µM
- IC50 [4]: < 0.01 µM

SMILES: CNC(=O)[C@H](Cc1ccc(OC)cc1)NC(=O)[C@@H](CC(=O)NO)CC(C)C
- IC50 [4]: 0.001 µM
